{"source": "patent US20090220528A1", "about": "“Stimulation of Toll-Like Receptors on T Cells” (THE TRUSTEES OF THE UNIVERISTY OF PENNSYLVANIA CNETER FOR …, priority 2005, published 2009)", "assay_type_in_all_cases": "cell-based, mouse", "key": {"[1]": {"system": "Foxp3+GFP+ and Foxp3-GFP- T cells", "experiment": "Foxp3 expression (GFP reporter) and IL-6 production in Foxp3+ and Foxp3- T cells under stimulation", "protocol": "In order to study the effect of stimulation conditions on Foxp3 expression, T cells were from mice having a reporter construct introduced into the FOXP3 locus (Betteli et al., 2006, Nature 441:235-238) by sorting cells based on the GFP-reporter construct. The reporter construct expresses both Fox3p and the fluorescent protein GFP. T cells that are Foxp3^− (i.e. GFP^−) and T cells that are Foxp3^+ (i.e. GFP^+) were isolated (FIG. 21A). Foxp3 expression was then assessed under different stimulation conditions, […]"}, "activated CD4+ T cells [2]": {"system": "activated CD4+ T cells", "experiment": "Analysis of antiapoptotic molecules (Bcl-2 FACS; Bcl-xL, Bcl-3 Western blot)", "protocol": "For Bcl-2 evaluation, CD4^+ T cells were permeabilized with 0.1% saponin/0.2% FBS/PBS and stained with anti-Bcl-2 PE monoclonal antibody (3F-11; BD PharMingen) or an isotype hamster IgG-PE control (A19-3; BD PharMingen) and staining was analyzed by FACS. Bcl-xL, Bcl-3, and β-actin were analyzed by Western blotting using rabbit anti-mouse Abs specific for BCl-xL (BD Transduction Laboratories, Lexington, Ky.), Bcl-3 (Santa Cruz Biotechnology, Santa Cruz, Calif.), and β-actin (Accurate Labs, Westbury, N.Y.).\nMembers of the Bcl family are mediators of activated CD4^+ T cell survival. […] Therefore, levels of each of these molecules were measured following TLR ligand treatment of activated CD4^+ T cells (FIGS. 4C and 4D). Bcl-2 protein levels were not changed by TLR ligand treatment relative to untreated activated CD4^+ T cell controls. Additionally, Bcl-3 protein levels were also left unaffected despite the fact that all of the TLR ligands used in the experiment are also used as adjuvants (Mitchell et al., 2001, Nat. Immunol. 2:397). […] Thus, directly mediated activated CD4^+ T cell survival is associated with specific BCl-xL up-regulation."}, "activated CD4+ T cells [3]": {"system": "activated CD4+ T cells", "experiment": "Absolute live CD4+ T cell counts by FACS", "settings": "up to 72 hours following activation with plate-bound anti-CD3 plus anti-CD28; relative to untreated cultures (FIG. 3C)", "protocol": "Following activation, purified CD4^+ T cells were washed twice in PBS and replated in culture medium at 10^6/ml. Cultures were left untreated or treated with either TLR ligands and/or inhibitors for indicated times and concentrations. Following incubation, CD4^+ T cells were washed twice in PBS/2% FBS and stained with CD4-allophycocyanin monoclonal antibody and 7-aminoactinomycin D (7-AAD; BD PharMingen) or annexin (BD PharMingen) and survival was assessed by exclusion of either of these two stains. For absolute live cell counts 50,000 CD45.1^+ splenocytes labeled with anti-CD45.1-PE monoclonal antibody (A20; BD PharMingen) were also added to stained CD4^+ T cell sample FACS tubes just before FACS analysis. Live CD4^+ T cell counts were calculated by taking the ratio of the number of CD4^+CD45.1^−7-ADD^− events collected to the number CD45.1^+ events collected and multiplying by 50,000. Proliferation was measured by CFSE dye dilution as previously described (Wells et al., 1997 J. Clin. Invest. 100:3173).\nSince percentage survival measurements may not be reflective of viable CD4^+ T cell numbers in vitro, absolute live cell number counts were quantified for periods up to 72 hours following activation of FACS sorted CD4^+ T cells with plate-bound anti-CD3 plus anti-CD28 monoclonal antibodies (FIGS. 3C)."}}}
{"substance": "poly(I:C)", "values": [{"measurement": "Foxp3 expression in Foxp3+GFP+ cells (natural Tregs)", "setting": "[1]; activated by anti-CD3 plus TLR ligand (FIG. 21B)", "value": "maintained Foxp3 expression"}, {"measurement": "Foxp3 expression in Foxp3-GFP- cells (non-regulatory T cells)", "setting": "[1]; stimulation with anti-CD3 and anti-CD28 antibodies and TGF-b, with additions (FIG. 22)", "value": "augmented"}, {"measurement": "Bcl-xL protein", "setting": "activated CD4+ T cells [2]; over LPS-treated and untreated activated CD4+ T cells", "value": "significant increases"}, {"measurement": "Bcl-3 protein levels", "setting": "activated CD4+ T cells [2]; relative to untreated activated CD4+ T cell controls", "value": "not observed"}, {"measurement": "live CD4+ T cell numbers", "setting": "activated CD4+ T cells [3]", "value": "concordant increases"}]}
